Measured values as given in patent US12728126B2, “Compounds for inhibiting LY6K and methods of using same” (The Henry M. Jackson Foundation for the Advancement of …, priority 2020, dated 2026).

Assays:
[1] = system: LC3B; assay: Western blot of autophagy marker LC3B in 4T1 cells; assay type: cell-based, mouse; details: 0.1 μM, 1.0 μM or 5.0 μM, 16 hours
Experimental: (§1) 4T1 mammary cells were plated at the same cell density. Cells were serum starved overnight. They were supplemented with medium containing 10% serum with or without doses of Compound I (0.1 μM, 1.0 μM or 5.0 μM) and for 16 hours. Equal quantity of protein was loaded for western blot analysis.

[2] = system: PD-L1; assay: PD-L1 protein expression in control cells; assay type: cell-based; details: 2 μM
[3] = system: LY6K; assay: LY6K membrane localization after short-term treatment; assay type: cell-based
Text: LY6K is expressed on lamellipodia on the cell membrane. […] It is contemplated that Compound I may disable LY6K signaling by its mislocalization form membrane where LY6K may promote TGFbeta, IFN-gamma signaling paways.

[4] = system: Myeloid-derived suppressor cells (MDSCs); assay: MDSCs (Cd11b and Gr1 dual positive cells) in peripheral blood of 4T1 tumor bearing mice, flow cytometry; assay type: in vivo; details: three doses of 50 mg/kg
Experimental: Myeloid-derived suppressor cells (MDSCs) are a major cell type which suppress the anti-tumor response. Cd11b and Gr1 dual positive cells in lymphocytes from peripheral blood from 4T1 tumor bearing mice received Compound I and the control group (10 mice in each group).
Three doses of Compound I (50 mg/kg) was injected via intravenously and intraperitoneally, and intravenous and peripheral blood was collected. Freshly isolated lymphocytes were stained with Cd11b and Gr-1 and a dye which can discriminated live and dead cells. The flow cytometry analysis for dual positivity was performed by gating on the live cells.

[5] = system: PD-L1; assay: PD-L1 measured in live cells after IFN γ treatment; assay type: cell-based; details: serum starved, 100 ng/ml IFN γ, 2 μM drug
Experimental: Cells were serum starved and treated with 100 ng/ml IFN γ with 2 μM drugs. PD-L1 was measured in live cells (using a zombie live-dead stain). The graph was plotted from three experiments. A 7.9-fold decrease in the number of cells with high PD-L1 expression was observed.

[6] = system: caspase 3; assay: Western blot of caspase 3 activation in 4T1 cells; assay type: cell-based, mouse; details: 0.1 μM, 1.0 μM or 5.0 μM, 16 hours
Experimental: Cancer cells accumulate various mutations in their genome, yet they are protected against DNA damage induced apoptosis. Poly (ADP-ribose) polymerase (PARP) is a protein which facilitates DNA repair, genomic stability, and inhibits programmed cell death. PARP proteins are inactivated by cleavage of caspase 3 and caspase 7 in vivo. PARP inactivation cleavage and caspase activation by western blot was studied.
as §1

[7] = system: E0771 tumors; assay: E0771 mammary tumor in syngeneic C57Bl/6 model, tumor growth and re-challenge; assay type: in vivo, C57BL6 mice
Experimental: Treatment of E0771 tumors in a syngeneic C57Bl/6 model with compounds described herein reduced tumor growth, while combination treatment with the two small molecules completely eliminated tumor growth. The treatment was halted after tumor disappearance. Three weeks later, the cured mice were re-challenged with E0771 tumor cells, with complete, durable protection against tumor growth.
In another study, syngeneic female C57BL6 mice were injected with mammary tumor cell line E0771 in the 4th mammary gland. After tumors were palpable, they were injected intra-peritoneal injection every 3rd day at 10 mg/kg. The tumor measurements were performed with caliper method. 5 out of 5 control mice continued to sustained tumor growth. […] The drug treatment was stopped after the resolve of the tumors. The cured mice (three out of five) were kept under observation for one month. These mice were re-challenged with E0771 tumor cell inoculation into mammary gland. A control naïve group of C57BL6 were simultaneous inoculated with same batch of E0771 tumor cells in to mammary gland. Tumor progression was monitored in both group. […] Tumor volume was measured in mm^3. Thus, Compound I treatment resolves tumor and induces anti-tumor immunity.

[8] = system: IFNγ/Stat1 signaling; assay: Western blot of IFNγ induced phosphorylation of Stat1; assay type: cell-based; details: serum starved, IFN γ (100 ng/mL), 2 μM, 30 minutes
Experimental: (§2) Cells were serum starved overnight and then treated with TGF 13 (10 ng/mL) or IFN γ (100 ng/mL) in the presence of 2 μM NSC243928 or NSC11150 for 30 minutes followed by protein analysis using western blot. […] NSC243928 inhibited the TGFβ1 induced phosphorylation of Smad2/3; NSC11150 had no effect on TGFβ1/Smad2/3 signaling. NSC11150 inhibited IFNγ induced phosphorylation of Stat1; NSC243928 had no effect on IFNγ/Stat1 signaling.

[9] = system: RhoA; assay: Western blot of motility marker RhoA in 4T1 cells; assay type: cell-based, mouse; details: 0.1 μM, 1.0 μM or 5.0 μM, 16 hours
Experimental: as §1

[10] = system: TGFβ1/Smad2/3 signaling; assay: Western blot of TGFβ1 induced phosphorylation of Smad2/3; assay type: cell-based; details: serum starved, TGFβ1 (10 ng/mL), 2 μM, 30 minutes
Experimental: as §2

[11] = system: 4T1 mammary cells; assay: Cell cycle analysis of 4T1 cells (DAPI, flow cytometry); assay type: cell-based, mouse
Experimental: 4T1 mammary cells were plated at the same cell density. Cells were serum starved overnight. They were supplemented with medium containing 10% serum with or without indicated doses of the Compound I for 16 hours. Cells were washed with PBS to remove floating cells. Cells were collected by trypsinization and centrifugation. Cell were fixed with methanol and counted. Equal number of cells were stained with 5 mM DAPI and flow cytometry was performed on Cytoflex and for flowjo was used for cell cycle analysis.

[12] = biological target: T1, LY6K (Mus musculus, UniProt Q9CWP4); assay: Western blot of total LY6K level in 4T1 cells; assay type: cell-based; parameters: dose or concentration left out as unconfirmed; details: overnight
T1 construct: endogenous in cells; host or cells: 4T1 mouse mammary tumor cells
T1 sequence (Q9CWP4 21-123): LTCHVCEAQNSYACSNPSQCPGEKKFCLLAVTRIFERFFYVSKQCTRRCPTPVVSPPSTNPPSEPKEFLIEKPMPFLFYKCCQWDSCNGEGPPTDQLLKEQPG
Experimental: 4T1 cells were treated with a concentration of 0.1 […] of Compound I overnight.

[13] = E0771, intra-peritoneal, every 3rd day, 10 mg/kg

## CCS(=O)(=O)Nc1ccc(Nc2c3ccccc3nc3ccccc23)c(OC)c1 [Compound I, N-(4-(acridin-9-ylamino)-3-methoxyphenyl)ethanesulfonamide]
[1]
  marker of autophagy LC3B: activated
[2]
  PD-L1 protein expression: did not show significant effect
[3]
  concentration at which loss of LY6K membrane localization was observed (as low as): 0.001 mM
[3]; 0.001 mM, 15 min
  localization of LY6K on the plasma membrane: translocation of LY6K from the plasma membrane
[4]
  lower MDSCs in peripheral blood of treated mice: more than 90%
[4]; gated on live cells
  Cd11b and Gr-1 dual positive cells in treated group: significantly lower
[5]
  inhibitory effect on cells with high expression of PD-L1: does not have inhibitory effect
[6]
  caspase 3 activation: activated
[7]; [13]
  treated mice with complete resolve of mammary tumor: 3 out of 5
  treated mice with partial response: 2 out of 5
[7]; re-challenged with E0771 after one month observation
  cured mice that remained immune to tumor cells on re-challenge: Three out of three
[8]
  IFNγ induced phosphorylation of Stat1: had no effect
[9]
  marker of motility RhoA: downregulated
[10]
  TGFβ1 induced phosphorylation of Smad2/3: inhibited
[11]
  concentration of maximum apoptosis: 5 µM
  concentration of maximum cell cycle arrest: 1 µM
[11]; 1.0 μM, 16 hours
  % of cells in singlet population, 4 n: 47.3%
  % of cells in singlet population, G1: 1.84%
  % of cells in singlet population, G2: 39.8%
  % of cells in singlet population, S: 2.27%
  % of cells in singlet population, Sub G1: 0.59%
  cell cycle arrest: cell cycle arrest in G2 phase-2n phase
[11]; 5.0 uM, 16 hours
  apoptosis: massive apoptosis
  cell cycle arrest: paused in G1 state
[11]; 5.0 μM, 16 hours
  % of cells in singlet population, 4 n: 0.024%
  % of cells in singlet population, G1: 67.5%
  % of cells in singlet population, G2: 0.35%
  % of cells in singlet population, S: 2.41%
  % of cells in singlet population, Sub G1: 7.38%
[12]
  total level of LY6K: dose response reduction
